Data on 7 compounds can be found in article PMC7352759, “S(+)-(2E)-N-(2-Hydroxypropyl)-3-Phenylprop-2-Enamide (KM-568): A Novel Cinnamamide Derivative with Anticonvulsant Activity in Animal Models of Seizures and Epilepsy” (International Journal of Molecular Sciences, 2020).

SMILES strings stand for the structures.

The nature of series [1]: Ames microplate format (MPF) assay, TA98. The settings on record: Salmonella typhimurium. An excerpt: (§1) The Ames microplate format (MPF) mutagenicity assay (Xenometrix, Allschwil, Switzerland) was used to test KM-568 mutagenicity. Growth, exposure, and indicator media, positive control chemicals, and four Salmonella typhimurium strains TA98, TA100, TA1535 and TA1537 were included in the kit. TA100 and TA1535 strains detect base substitution mutations, whereas TA98 and TA1537 indicate frameshift mutations. The strains of bacteria included in a kit are in compliance with the Organization for Economic Cooperation and Development (OECD) 471 Guideline for Testing of Chemicals.
(§2) The assay is a liquid microplate modification of the traditional Salmonella test. During the procedure, bacteria are exposed to different concentrations of a test compound for 90 min in a medium containing sufficient histidine to support cell divisions. Then, the cultures are diluted in a pH indicator medium lacking histidine and aliquoted into 48 wells of a 384-well plate. Within 2 days, bacteria that have undergone reversion to amino acid prototrophy will form colonies. Products of bacteria metabolism reduce pH of the medium, changing the color of wells from purple to yellow.
(§3) The test procedure provided by Xenometrix and described in detail elsewhere was followed. Bacterial strains were grown overnight (14–16 h) in exposure medium in a shaker incubator and then exposed to KM-568 in 24-well plates for 90 min at 37 °C with agitation. Final KM-568 concentrations in the assay were 0.1, 0.2, and 0.5 mM. After preincubation, the cultures were diluted in the indicator medium and the contents of each 24-well culture were transferred to 48 wells on a 384-well plate and incubated further for 48 h at 37 °C without agitation. After the exposure, the number of wells containing bacteria was scored for yellow wells. […] Pure DMSO was used as a negative control. All doses were performed in triplicate.
(§4) The fold increase of revertants relative to the solvent control was determined by dividing the mean number of positive wells at each dose by the solvent control at baseline. The solvent control at baseline was calculated as the mean number of positive wells in the solvent control plus one standard deviation (SD). When an increase of more than twofold relative to the baseline at more than one dose with a dose–response was observed, the sample was classified as positive, whereas when no response > 2 times the baseline and no dose–response was stated, the sample was classified as negative.

In series [2] the test system is mice. The following applies: mice i.p.; cited from earlier work.
Series [3] has as its system mice. The settings on record: mice i.p.; cited from earlier work. The source holds these as a separate data set.
Series [4] can be described thus: Ames microplate format (MPF) assay, TA1537. The following applies: Salmonella typhimurium.
Description: as §1, §2, §3, §4

The subject of series [5] is Salmonella typhimurium TA1535. Nature of the series: Ames microplate format (MPF) assay, TA1535. The settings on record: TA1535, positive control at 100 µg/mL.
Description: as §1, §2, §3, §4

In a further series the test system is rats. Set-up: method as in doi:10.2174/157018012798192982. The following applies: rats p.o.; cited from earlier work.

In series [1], `O=[N+]([O-])c1ccc2c(c1)Cc1ccccc1-2` [2-NF, 2-nitrofluorene, reference compound] yielded a fold induction at 90 min, 2 µg/mL of 6.4.
Turning to `CC(O)CNC(=O)/C=C/c1ccc(Cl)cc1` (stereo not drawn) [R,S-(2E)-3-(4-chlorophenyl)-N-(2-hydroxypropyl)prop-2-enamide], the “MES ED50” value in the series with mice [2] is recorded as 55.6 mg/kg. Besides, the “scMET ED50” value with mice [3] is recorded as 102.2 mg/kg.
In the case of `Cc1ccccc1/C=C/C(=O)N[C@@H](C)CO` [S-(2E)-N-(1-hydroxypropan-2-yl)-3-(2-methylphenyl)prop-2-enamide], the “MES ED50” value with mice [2] is 42.6 mg/kg. For the same compound, the “scMET ED50” value in the series with mice [3] is 58.4 mg/kg.
`Nc1c2ccccc2nc2ccccc12` [9-AAc, 9-aminoacridine, reference compound]: the fold induction at 90 min, 15 µg/mL in series [4] was 48.
For `NNc1ccn([C@@H]2O[C@H](CO)[C@@H](O)[C@H]2O)c(=O)n1` [N4-ACT, N-4-aminocytidine, reference compound], in series [5], the “fold induction of the number of positive wells over baseline” value is 14.7 fold.
For the compound `CC(O)CNC(=O)/C=C/c1ccccc1` (stereo not drawn) [R,S-(2E)-N-(2-hydroxypropyl)-3-phenylprop-2-enamide], the “MES (pharmacological parameter, ED50)” value with mice [2] is 47.1 mg/kg; in the series with rats it was 22.8 mg/kg. Also, the “scMET (pharmacological parameter, ED50)” value in the series on mice [3] is given as 77.1 mg/kg.
As to `O=C(/C=C/c1ccccc1)N1CCCC(O)C1` (stereo not drawn) [R,S-(2E)-1-(3-hydroxypiperidin-1-yl)-3-phenylprop-2-en-1-one], the “MES ED50” value in the series with mice [2] is on record as 55.0 mg/kg. Besides, in the series with mice [3], the “scMET ED50” value is recorded as 82.3 mg/kg.

The term fold induction denotes the ratio of treated to control signal. High values mean a strong induction, low ones a weak induction.
